Assay results taken from PMC7177456, “A Peptidomimetic Fluorescent Probe to Detect the Trypsin β2 Subunit of the Human 20S Proteasome” (International Journal of Molecular Sciences, 2020).
Where two headings read alike, the source gives them in different places. Non-standard residues stand in square brackets, D forms with d. *: point of attachment. ACC = NC(=O)Cc1cc(=O)oc2cc(N*)ccc12; AMC = Cc1cc(=O)oc2cc(N*)ccc12; hSer = N[C@@H](CCO)C(=O)O; Boc = CC(C)(C)OC(=O)*

How the values were obtained:
[1] = target: T1, human 20S proteasome, trypsin-like (β2) subunit (Homo sapiens, UniProt P49720+Q99436); assay: Kinetic parameters of substrate 1 with human 20S proteasome (allosteric fit); format: biochemical; conditions: SDS 0.01%, substrate 1
T1 construct: purchased Boston Biochem (Cambridge, MA, USA)
Procedure: For enzymatic studies, the human 20S proteasome, 26S proteasome, and 20S immunoproteasome were purchased from Boston Biochem (Cambridge, MA, USA). The 20S proteasome concentration for library deconvolution was in the nanomolar range, and this proteasome entity was used for the main study. Deconvolution of the peptide libraries was performed using the iterative solution method. Dimethyl sulfoxide (DMSO) was used as a solvent for preparation of the stock solution (5 mg/mL) for each lyophilized sub-library. This stock solution was diluted ten times using an assay buffer (50 mM Tris/HCl buffer (pH 8.2)) for the 20S and 20Si proteasome, and for 26S, the buffer was supplemented with 40 mM KCl, 2 mM EDTA, 1 mM DTT, 100 µM ATP, and 50 µg/mL bovine serum albumin (BSA). The volume composition of each well of the 96-well plate was: 20 µL library, 160 µL assay buffer, and 20 µL 20S proteasome solution at a concentration of 1.07 × 10^−9 M. Absorbance or fluorescence measurements were performed on a FluoroStar OMEGA multimode microplate reader (BMG, Ortenberg, Germany). Absorbance increases were monitored at 410 nm. The excitation and emission wavelengths were 320 and 450 nm respectively, for the ABZ/ANB. Enzymatic hydrolysis of the peptide was performed in the assay buffer at 37 °C and continued over 60 min.
The procedures to determine the kinetic constants Km and kcat are described below. Increasing concentrations of substrate 1 ranged from 1 × 10^−6 to 2 × 10^−5 M. In parallel, a kinetic assay with the artificial activator SDS at 0.01% was also performed. The data were fitted to an allosteric plot using GraphPad prism v6.0 (GraphPad Software Inc., La Jolla, CA, USA). The specificity constants (kcat/ Km) were calculated from the kcat and Km values. Measurements were performed using a 20S proteasome concentration of 1.07 × 10^−9 M. Three to five measurements were performed for each compound dilution (the systematic error, defined as the standard deviation, never surpassed 20%). The initial hydrolysis rates were used as the amount of enzymatic activity for the tested compounds. All kinetic study details and kinetic parameters have been described elsewhere.

[2] = test system: 20S proteasome; assay: Inhibitory studies: cleavage of substrate 1 in the presence of selective proteasome inhibitors; format: biochemical, human; conditions: 30 min preincubation at 37 °C, 20S 1.07 × 10^−9 M, substrate 1.34 × 10^−5 M, triplicate
Text: A black, 96-well flat-bottomed microplate (Brand GMBH, Wertheim, Germany) was used for the inhibitory studies. Two inhibitors, carfilzomib (a selective inhibitor of the β5 subunit of the 20S proteasome) and epoxomicin, were purchased from Merck (Darmstadt, Germany) and used at final concentrations of 1.15 × 10^−6 M and 5.0 × 10^−5 M, respectively. The β2 inhibitor, PR671A [20], and the β1 inhibitor, NCOO1 [21], were used at a concentration of 5 × 10^−6 M. These reagents were kindly provided by Alexei Kisselev from Dartmouth University (Dartmouth, NH, USA). The concentration of 20S proteasome was 1.07 × 10^−9 M. The buffered proteasome solution was mixed with 10 µL inhibitor solution. This mixture was incubated for 30 min at 37 °C. After this period, the substrate solution was added at a concentration of 1.34 × 10^−5 M, and the fluorescence was measured over time at 320 nm excitation and 450 nm emission wavelengths. All measurements were performed in triplicate.

[3] = test system: neutrophil-related proteases / neutrophil serine protease 4 (NSP4); conditions: ref [19], cited from earlier work
Text: Recently, we established a new method for the selection and synthesis of artificial fluorogenic substrates composed of DAPEG residues (Figure 1). For the screening of 18 libraries, we created a series of compounds based on the neutrophil serine protease 4 (NSP4) substrate sequence (ABZ–X4–X3–X2–Arg–ANB–NH2) diversified in positions X4 to X2 with DAPEG, resulting in a total of almost 6000 compounds.

[4] = test system: trypsin-like subunit of the 20S proteasome; conditions: cited from earlier work; for selectivity for trypsin-like specificity: commercially available substrates, no reference given; for selectivity for trypsin-like specificity / selectivity for the trypsin subunit: introduction
Text: Table 1 Overview of the fluorogenic substrates of the trypsin-like subunit of the 20S proteasome. | column: Km (µM); kcat (s^−1); kcat/Km (M^−1 s^−1) || The aim of this work is to develop a new substrate to assay the trypsin-like specificity of the human 20S proteasome that is created by DAPEG building blocks, which are N-substituted functionalized derivates of 3-diaminopropionic acid (Figure 1). The substrate preferences of the β2 subunit have been previously examined. Harris and coworkers described the development of new substrates selected via combinatorial library screening. The substrate peptides were labeled with 7-amino-4-carbamoylmethylcoumarin (ACC) as a reporter moiety, and a specific sequence of the β2 subunit, Ac–Glu– ...

[5] = test system: chymotrypsin subunit (β5) of the 20S proteasome in human urine; assay: Proteasome activity in human urine with the β5 substrate; format: biochemical
Procedure: All urine samples were purchased from St. Vincent de Paul Hospital in Gdynia, Poland (contract no. JN/777/R720/08.11.17). All methods and procedures were performed in accordance with this contract agreement. Participants were informed about the study and sample collection, and their written consent was collected. […] Therefore, the samples were considered unnamed. The samples of human urine were taken during mid-urination and kept for 48 h at −80 °C until required. All samples used for assay development were taken from healthy volunteers (n = 5), and oncological samples were obtained from patients diagnosed with bladder cancer (n = 8).
In parallel, the urine samples were analyzed using the previously developed substrate ABZ–Val–Val–Ser–Tyr–Ala–Met–Gly–Tyr(3-NO2)–NH2 [21] in two systems: one with the artificial activator SDS at 0.01% and the second without any SDS. The fluorescence of the system was recorded over time. The same conditions for excitation and emission were used as above. All measurements were performed in triplicate.
The resulting data were analyzed using Graphpad Prism version 6.0 software (GraphPad Software Inc., La Jolla, CA, USA). All fluorescent measurements were performed in triplicate and represented by the mean ± standard deviation (SD). A two-tailed Mann–Whitney test was applied for the statistical analysis (p < 0.0001).

## CCCCCCCCCCCCOS(=O)(=O)[O-].[Na+] [SDS, sodium dodecyl sulfate]
[1]
  effect on β2 subunit activity of the 20S proteasome: not significantly altered

## CC(C)C[C@H](NC(=O)[C@H](CCc1ccccc1)NC(=O)CN1CCOCC1)C(=O)N[C@@H](Cc1ccccc1)C(=O)N[C@@H](CC(C)C)C(=O)[C@@]1(C)CO1 [carfilzomib]
[2]; carfilzomib (β5) 1.15 × 10^−6 M
  effect on cleavage of substrate 1: a slight activation of the cleavage rate

## CC[C@H](C)[C@H](NC(=O)[C@H]([C@@H](C)CC)N(C)C(C)=O)C(=O)N[C@H](C(=O)N[C@@H](CC(C)C)C(=O)[C@@]1(C)CO1)[C@@H](C)O [epoxomicin]
[2]; epoxomicin (general inhibitor) 5.0 × 10^−5 M
  effect on cleavage of substrate 1: proteolytic suppression of substrate 1

## ABZ–Dap(O2(Cbz))–Dap(Cbz)–Dap(GO1)–Arg–ANB–NH2
[3]; NSP4 substrate-based library
  specificity constant (kcat/Km): 130000 M⁻¹ s⁻¹
[3]
  selectivity towards neutrophil-related proteases: high levels of selectivity

## ABZ–Val–Val–Ser–GNF–Ala–Met–Gly–Tyr(3-NO2)–NH2
[4]; ref [21]
  Km: 4.24 ± 0.87 µM
  kcat: 8.41 ± 0.57 s⁻¹
  kcat/Km: 1,983,100 ± 2754 M^−1 s^−1

## ABZ–Val–Val–Ser–Tyr–Ala–Met–Gly–Tyr(3-NO2)–NH2 [previously developed substrate]
[5]; healthy urine, all systems (with and without SDS), n = 5
  fluorescence increase, healthy samples: no visible fluorescence increase
[5]; with SDS 0.01%, 8 bladder cancer samples, triplicate
  bladder cancer samples with fluorescence increase: seven systems (1–5, 7, and 8)
[5]; with SDS 0.01%, bladder cancer sample N° 6
  fluorescence increase rate, sample N° 6: insignificant
[5]; without SDS, 8 bladder cancer samples, 320/450 nm, triplicate
  bladder cancer samples with visible fluorescence increase: 2 out of the 8

## Ac-Leu-Arg-Arg-{AMC} [commercially available 20S proteasome substrate]
[4]
  selectivity for trypsin-like specificity: significant selectivity

## Ac-[dR][hSer]TR-{ACC}
[4]; ref [18]
  selectivity for the trypsin subunit: moderate selectivity at higher proteasome concentrations
  Km: 9.43 ± 0.82 µM
  kcat: 2.84 ± 0.22 s⁻¹
  kcat/Km: 301,005 ± 28,471 M^−1 s^−1
[4]; ref [18], listed as Ac–DArg–Hse–Thr–Arg–ACC
  kcat/Km: 301,005 M^−1 s^−1

## Ac–βAla–Met(O)2–Thr–Arg–ACC
[4]; ref [18]
  selectivity for the trypsin subunit: most selective
  Km: 50.9 ± 2.99 µM
  kcat: 2.23 ± 0.07 s⁻¹
  kcat/Km: 43,790 ± 3233 M^−1 s^−1
[4]; ref [18], listed as Ac–βAla–Met(O2)–Thr–Arg–ACC
  kcat/Km: 43,790 M^−1 s^−1

## Boc-Leu-Arg-Arg-{AMC} [commercially available 20S proteasome substrate]
[4]
  selectivity for trypsin-like specificity: significant selectivity
[4]; ref [22]
  kcat/Km: <500 M⁻¹ s⁻¹
